Reference: paper PMC9465178, “Cinnamaldehyde derivatives act as antimicrobial agents against Acinetobacter baumannii through the inhibition of cell division” (Frontiers in Microbiology, 2022)
Values after ≈ are worked out from the molar mass of the structure shown. Read-outs that look alike come from different tables or passages of the source. Peptide text beside a SMILES is read from it. * marks the point of attachment. βNA = c1ccc2cc(N*)ccc2c1

Columns and labels:
[1] = system: Klebsiella pneumoniae ATCC 4352; experiment: Antibacterial activity (MIC), microbroth dilution; assay type: cell-based; details: ATCC4352; Klebsiella pneumoniae ATCC 4352; unit inferred; read-out: Antibacterial activity (MIC)
Description: (§1) Reference bacterial strains were obtained from the American Type Culture Collection (ATCC). Vancomycin resistant Enterococcus faecium (VRE 734, wastewater isolate from the Venter Laboratory Collection) was isolated on Bile Esculin agar (Oxoid, Australia) containing 6 μg/mL vancomycin and identified using MALDI-TOF mass spectrometry (Bruker, Preston, Victoria, Australia, Australian Center for Antimicrobial Resistance Ecology). The Pseudomonas aeruginosa WT PAO1 and Escherichia coli with deletions of both acrA and acrB genes encoding drug efflux pumps were obtained from the Venter laboratory stock ([Welch et al., 2010]). The protocol for microbial growth was adopted from the European Committee on Antimicrobial Susceptibility Testing (EUCAST) ([European Committee for Antimicrobial Susceptibility Testing, 2016]).
(§2) Non-fastidious bacteria and clinical isolates were maintained in Mueller Hinton (MH) broth (Acumedia, United Kingdom) supplemented with 15% (v/v) glycerol (Chem-Supply, Australia), cultured on Mueller Hinton (MH) agar (Acumedia, United Kingdom) plated and incubated at 37°C. Fastidious bacteria were maintained in Brain Heart Infusion (BHI) broth (Acumedia, United Kingdom) supplemented with 15% (v/v) glycerol at −80°C. The fastidious bacteria were cultured on MH agar plates supplemented with 5% (v/v) lysed horse blood and 3% (v/v) fetal bovine serum and incubated at 30°C in the presence of 5% CO2. Drug susceptibility assays were carried out with the non-fastidious cultures grown in cation-adjusted Mueller Hinton (CaMH) broth (Becton Dickinson, France). Streptococcus pyogenes was grown in CaMH broth supplemented with 5% (v/v) lysed horse blood and 3% (v/v) fetal bovine serum whereas Enterococcus faecium was grown in BHI broth.
(§3) The minimum inhibitory concentrations (MICs) for all six compounds were determined using the microbroth dilution protocol as per EUCAST with an inoculum of approximately […] in an exponential growth phase ([European Committee for Antimicrobial Susceptibility Testing, 2016]). Bacterial suspension, 100 μL/well, was added to 100 μL/well of drug dilutions, then incubated for 18 h at 37°C. Fastidious bacterial suspensions were instead incubated at 30°C in the presence of 5% CO2. Bacterial growth was assessed by measuring the change in A600 nm between time 0 and 18 h (Cytation5® Cell Imaging Multi-Mode Reader, Bio-Tek®). Levofloxacin was used as the positive control. Assays were completed in duplicate in at least three independent experiments.

[2] = system: Enterobacter aerogenes ATCC 13408; experiment: Antibacterial activity (MIC), microbroth dilution; assay type: cell-based; details: Klebsiella aerogenes, ATCC13408; Enterobacter aerogenes ATCC 13408; unit inferred; read-out: Antibacterial activity (MIC)
Description: as §1, §2, §3

[3] = system: Klebsiella pneumoniae ATCC 33495; experiment: Antibacterial activity (MIC), microbroth dilution; assay type: cell-based; details: ATCC33495; Klebsiella pneumoniae ATCC 33495; unit inferred; read-out: Antibacterial activity (MIC)
Description: as §1, §2, §3

[4] = system: Pseudomonas aeruginosa ATCC 27853; experiment: Antibacterial activity (MIC), microbroth dilution; assay type: cell-based; details: ATCC27853; Pseudomonas aeruginosa ATCC 27853; unit inferred; read-out: Antibacterial activity (MIC)
Description: as §1, §2, §3

[5] = system: Methicillin resistant Staphylococcus aureus; experiment: Antibacterial activity (MIC), microbroth dilution; assay type: cell-based; details: ATCC 43300 / MRSA; Methicillin resistant Staphylococcus aureus (MRSA ATCC 43300); unit inferred; read-out: Antibacterial activity (MIC)
Description: as §1, §2, §3

[6] = system: Escherichia coli ATCC 35218; experiment: Antibacterial activity (MIC), microbroth dilution; assay type: cell-based; details: ATCC35218; Escherichia coli ATCC 35218; unit inferred; read-out: Antibacterial activity (MIC)
Description: as §1, §2, §3

[7] = system: Escherichia coli WT BW 25113; experiment: Antibacterial activity (MIC), microbroth dilution; assay type: cell-based
Description: as §1, §2, §3

[8] = system: Klebsiella pneumoniae ATCC 13883; experiment: Antibacterial activity (MIC), microbroth dilution; assay type: cell-based; details: ATCC13883; Klebsiella pneumoniae ATCC 13883; unit inferred; read-out: Antibacterial activity (MIC)
Description: as §1, §2, §3

[9] = system: Pseudomonas aeruginosa WT PAO1; experiment: Antibacterial activity (MIC), microbroth dilution; assay type: cell-based; details: Pseudomonas aeruginosa WT PAO1; unit inferred; read-out: Antibacterial activity (MIC)
Description: as §1, §2, §3

[10] = system: A. baumannii XDR UW 5075; experiment: MIC, microbroth dilution (EUCAST); assay type: cell-based, Acinetobacter baumannii
Description: as §1, §2, §3

[11] = system: A. baumannii ATCC 19606; experiment: MIC, microbroth dilution (EUCAST); assay type: cell-based, Acinetobacter baumannii
Description: as §1, §2, §3

[12] = system: A. baumannii ATCC 19606 and UW 5075; experiment: Outer membrane permeabilisation, nitrocefin hydrolysis; assay type: cell-based, Acinetobacter baumannii; details: PAβN at 100 or 200 µg/mL, nitrocefin hydrolysis at 490 nm
Description: A. baumannii ATCC 19606 and the extensively resistant strain UW 5075 were assayed for permeabilisation of the outer membrane by the efflux pump inhibitor PAβN. Nitrocefin was added to the cells that received no treatment (black circles), cells treated with the outer membrane permeabilizer polymyxin B (PMB, red squares) or PAβN at 100 µg/mL (light blue triangles) or 200 µg/mL (dark blue triangles). Nitrocefin hydrolysis by the periplasmic β-lactamase was observed as an increase in absorbance at 490 nm. Representative traces are shown from triplicate experiments performed on different days. Symbols represent the mean of triplicate readings ± SEM.

[13] = system: A. baumannii ATCC 19606; experiment: Cell division phenotype by light microscopy; assay type: cell-based, Acinetobacter baumannii; details: divin at 64 μg/mL
Description: Morphological changes of bacteria when exposed to the compounds were assessed microscopically using the assay as previously described ([Chai et al., 2020]). Eppendorf® tubes were set up with A. baumannii ATCC 19606 as described for the time-kill assays. At time 0, 1, 3, 6, and 18 h, an aliquot of the bacterial suspension (1 μL) was transferred onto a glass slide and viewed under a light microscope (Olympus CX33®) at 100 × magnification. Representative images were captured using JENOPTIK GRYPHAX® imaging.
A 1 μL aliquot was taken out at varying timepoints (0, 1, 3, 6, and 18 h) and imaged by light microscopy. The images for 6 h are depicted here. […] The white arrow indicates “grooving” site, an indication of where separation of daughter cells should take place. Scale bar is 50 μm.
Four of the compounds (LXC 31, 33, 35 and 41) were tested at 1× and 2× their minimum inhibitory concentration (MIC) whereas LXC 36 and 43 were tested at 2× and 4× MIC. The phenotypic changes in A. baumannii morphology were analysed under a light microscope (100× magnification) at time 0, 1, 3, 6 and 18 h. Scale bar is 50 µm.

[14] = system: E. coli; details: cited from earlier work
[15] = system: E. coli FtsZ; design: method as in Domadia et al., 2007; details: ref Domadia et al., 2007, read-out: IC50, GTPase activity; cited from earlier work
[16] = system: E. coli FtsZ; details: E. coli FtsZ; ref Domadia et al., 2007; cited from earlier work
[17] = system: Streptococcus pneumoniae (type 3, mucoid strain) ATCC 6303; experiment: Antibacterial activity (MIC), microbroth dilution; assay type: cell-based; details: ATCC6303; Streptococcus pneumoniae ATCC 6303; unit inferred; read-out: Antibacterial activity (MIC)
Description: as §1, §2, §3

[18] = system: Streptococcus pyogenes ATCC 10389; experiment: Antibacterial activity (MIC), microbroth dilution; assay type: cell-based; details: ATCC10389; Streptococcus pyogenes ATCC 10389; unit inferred; read-out: Antibacterial activity (MIC)
Description: as §1, §2, §3

[19] = system: human red blood cells; experiment: Hemolysis assay; assay type: cell-based
Description: The hemolysis assay was performed using fresh human red blood cells (RBCs). […] These were performed in quadruplicate. Thereafter, 192 μL RBCs were added into all wells and the plates were incubated at 37°C under constant shaking (100 rpm) for 1 h. RBCs were precipitated by centrifugation of the plates (1,000× g for 3 min). An aliquot (100 μL) of each supernatant was transferred into a new 96-microwell plate and the A450 nm was determined using a PerkinElmer Enspire® plate reader. The fraction of intact RBC for each sample was determined as fraction of the intact RBCs for the sample without the addition of compounds (set at 100%) and plotted as a function of compound concentration.
A 1% (v/v) Triton X-100 was used to indicate complete RBC lysis (^‡). […] The assays were performed in quadruplicates. The plates were incubated at 37°C while constantly shaking at 100 rpm for 1 h. Intact RBCs were removed by centrifugation and the presence of hemolytic products in the supernatant were determined by measuring the absorbance at A450 nm. The results are presented in mean ± SEM. Statistical analysis was performed using one-way ANOVA and the asterisks (*) represent statistical significance (*p < 0.05; **p < 0.005; ***p < 0.0005; ****p < 0.0001).

[20] = WTBW25113, Escherichia coli WT BW 25113, unit inferred, read-out: Antibacterial activity (MIC)
[21] = Acinetobacter baumannii, XDRUW5075, 18 h
[22] = Acinetobacter baumannii, ATCC19606, A. baumannii ATCC 19606, 18 h, 37°C, read-out: MIC

## CO[C@H]1/C=C/O[C@@]2(C)Oc3c(C)c(O)c4c(O)c(c(/C=N/N5CCN(C)CC5)c(O)c4c3C2=O)NC(=O)/C(C)=C\C=C\[C@H](C)[C@H](O)[C@@H](C)[C@@H](O)[C@@H](C)[C@H](OC(C)=O)[C@@H]1C [RIF, rifampicin, reference compound]
[1]
  MIC: > 64 µg/mL
[2]
  MIC: 16 µg/mL (≈ 19.4 µM)
[3]
  MIC: 32 µg/mL (≈ 38.9 µM)
[4]
  MIC: 32 µg/mL (≈ 38.9 µM)
[5]
  MIC: 32 µg/mL (≈ 38.9 µM)
[6]
  MIC: > 16 µg/mL
[7]; [20]
  MIC: > 16 µg/mL
[8]
  MIC: 8 µg/mL (≈ 9.72 µM)
[9]
  MIC: 32 µg/mL (≈ 38.9 µM)

## CNC(C)C1CCC(N)C(OC2C(N)CC(N)C(OC3OCC(C)(O)C(NC)C3O)C2O)O1 (stereo not shown) [Gentamicin, reference compound]
[10]; [21]
  MIC: > 1020 µg/mL
[11]; Acinetobacter baumannii, ATCC19606, 18 h
  MIC: 16 µg/mL (≈ 33.5 µM)

## NC(N)=NCCC[C@H](NC(=O)[C@@H](N)Cc1ccccc1)C(=O)Nc1ccc2ccccc2c1 [PAβN, phenylalanine arginine-β-naphthylamide] (H-Phe-Arg-βNA)
[12]
  Damage of the bacterial outer membrane: does not damage the bacterial outer membrane

## Cc1nc2ccccc2n1CCC(=O)NN=Cc1c(O)ccc2ccccc12 [divin, reference compound]
[13]
  Cell morphology: elongated cell shape

## Cc1onc(-c2ccccc2)c1C(=O)N[C@@H]1C(=O)N2[C@@H]1SC(C)(C)[C@@H]2C(=O)O [OXA, oxacillin, reference compound]
[1]
  MIC: > 64 µg/mL
[2]
  MIC: > 16 µg/mL
[3]
  MIC: > 64 µg/mL
[4]
  MIC: > 64 µg/mL
[5]
  MIC: 16 µg/mL (≈ 39.9 µM)
[6]
  MIC: > 64 µg/mL
[7]; [20]
  MIC: > 64 µg/mL
[8]
  MIC: > 64 µg/mL
[9]
  MIC: > 64 µg/mL

## O=C/C=C/c1ccccc1 [cinnamaldehyde]
[14]; ref Domadia et al., 2007, Li et al., 2015a
  MIC: 1000 µg/mL (≈ 7570 µM)
[14]; ref Domadia et al., 2007
  Mechanism of action (bacteriostatic): bacteriostatic
[15]
  IC50: 5.8 µM
[16]
  ED50, self-polymerization: 6.9 µM

## C[C@H]1COc2c(N3CCN(C)CC3)c(F)cc3c(=O)c(C(=O)O)cn1c23 [Levofloxacin, reference compound]
[17]
  MIC: 1 µg/mL (≈ 2.77 µM)
[1]
  MIC: 1 µg/mL (≈ 2.77 µM)
[2]
  MIC: 1 µg/mL (≈ 2.77 µM)
[3]
  MIC: 1 µg/mL (≈ 2.77 µM)
[4]
  MIC: 1 µg/mL (≈ 2.77 µM)
[18]
  MIC: 1 µg/mL (≈ 2.77 µM)
[5]
  MIC: 1 µg/mL (≈ 2.77 µM)
[6]
  MIC: 0.004 µg/mL (≈ 0.0111 µM)
[7]; Escherichia coli, WTBW25113, read-out: Antibacterial activity (MIC)
  MIC: 0.25 µg/mL (≈ 0.692 µM)
[8]
  MIC: 1 µg/mL (≈ 2.77 µM)
[9]
  MIC: 0.5 µg/mL (≈ 1.38 µM)
[10]; [21]
  MIC: 8 µg/mL (≈ 22.1 µM)
[11]; [22]
  MIC: 0.5 µg/mL (≈ 1.38 µM)

## CC1(C)S[C@@H]2[C@H](NC(=O)[C@H](N)c3ccc(O)cc3)C(=O)N2[C@H]1C(=O)O [Amoxycillin, reference compound]
[10]; [21]
  MIC: 1020 µg/mL (≈ 2800 µM)
[11]; [22]
  MIC: 64 µg/mL (≈ 175 µM)

## Triton X-100 [reference compound]
[19]
  Hemolytic activity: completely disrupt the red blood cells

## C[C@@H](O)[C@H]1C(=O)N2C(C(=O)O)=C(SCCN=CN)C[C@H]12 [Imipenem, reference compound]
[10]; [21]
  MIC: 128 µg/mL (≈ 428 µM)
[11]; [22]
  MIC: 1 µg/mL (≈ 3.34 µM)

## Colistin [reference compound]
[10]; A. baumannii XDR UW 5075, 18 h, 37°C
  MIC: 2 µg/mL
[11]; A. baumannii ATCC 19606, 18 h, 37°C
  MIC: 2 µg/mL
